# Key:
# Assay type in all cases: cell-based
# [1] = target: T1, Prostaglandin F receptor (FP) (Homo sapiens, UniProt P43088); experiment: Unimolecular DAG sensor BRET, FP activation; conditions: FP-transfected HEK293SL, 1 min stimulation, read-out: EC50, DAG produced at the plasma membrane
# T1 construct: expressed in transfected cells; host or cells: HEK293SL
# Description: (§1) Unimolecular DAG sensor. For FIGS. 22B and C, HEK293SL cells stably expressing hAt1AR (˜50 fmol/mg) were cultured in DMEM supplemented with 10% FBS and 20 μg/ml gentamycin and seeded at a density of 75,000 cells/100 mm dishes and were transiently transfected the next day with 150 ng of construct encoding for the DAG unimolecular sensor, using calcium phosphate method as described previously. 48 h post-transfection, cells were washed and Coel-400a was added to a final concentration of 5 μM and incubated 3 min. […] Data are mean±SD of triplicates of a representative experiment. […] Data are mean±S.E. of six independent experiments. For FIGS. 22D and E, Hek293SL cells were transfected with FuGENE HD, according to Roche's protocol with a ratio of 2:1 fugene:DNA. 10 ng of construct encoding the unimolecular sensor and 400 ng for the receptor (FIGS. 22D, FP and in 2E, GPR14) complemented to 1 ug with ssDNA, were transfected per well of a 6 well plate. 48 h post-transfection, cells were washed, incubated in Tyrode's buffer for 1 h. […] For FIG. 22F, cells were transfected as in FIG. 22D but with just the unimolecular DAG sensor encoding construct. 48 h post-transfection, cells were washed, incubated in Tyrode's buffer for 1 h. […] Cells were then stimulated with 5 μM m-3m3FBS or just vehicle for the indicated time. […] 48 h post-transfection, cells were washed, incubated in Tyrode's buffer for 1 h.
# [2] = test system: PLC (β2, β3, γ1, γ2, δ1 isoforms); experiment: Unimolecular DAG sensor BRET, direct PLC activation; conditions: 5 uM
# Description: as §1
# hMC4R (R165Q) = target: T2, hMC4R (R165Q) (Homo sapiens, UniProt P32245, R165Q); experiment: BRET pharmacological chaperone rescue / sequestration assay (rGFP-CAAX), hMC4R (R165Q)-RlucII; conditions: 10 μM, 16 h
# T2 construct: expressed in transfected cells; host or cells: HEK293
# Description: (§2) BRET assay for evaluation of PC rescue of cell surface expression and functionality (sequestration assay). In FIGS. 12A to 18E, Hek293 cells were transiently transfected using PEI as described in this section. The DNA transfected per well of a 96-well plate is as follow: in FIGS. 12A and 12B, with 2.4 ng of hMC4R-RlucII encoding construct and an increasing quantity of rGFP-CAAX (Kras) up to 9.6 ng for FIGS. 12A and for 12B, rGFP-PB up to 9.6 ng; in FIGS. 13A to 13C with 0.6, 1.2 or 2.4 ng of hMC4R-RlucII and 4.8 ng of rGFP-CAAX (Kras); in FIG. 13D with 2.4 ng of polycistronic rGFP-CAAX(Kras)/MC4R-RlucII construct; in FIG. 13E with 1.2 ng of hV2R-RlucII and 4.8 ng of rGFP-CAAX (Kras); in FIGS. 14A to 16B with 2.4 ng of hMC4R-RlucII and 7.2 ng of rGFP-CAAX (Kras); Hek293 cells stably expressing rGFP-CAAX(Kras) were transfected with 0.6, 1.2 or 2.4 ng of hMC4R-RlucII; in FIG. 17A or 0.6, 1.2 or 2.4 ng of hV2R_Y128S-RlucII; in FIG. 17B; in FIGS. 18A and 18B with 0.6, 1.2 or 2.4 ng of hERG-RlucII and 4.8 ng of rGFP-CAAX (Kras); and in FIGS. 18C-18E with 0.6 ng of hERG-RlucII and 7.2 ng of rGFP-CAAX (Kras). […] For the BRET assay, cells were washed once with PBS and left in Tyrode's buffer. […] BRET values were determined by calculating the ratio of the light emitted by the acceptor over the light emitted by the RlucII.
# hMC4R (P299H) = target: T3, hMC4R (P299H) (Homo sapiens, UniProt P32245, P299H); experiment: BRET pharmacological chaperone rescue assay (rGFP-CAAX), hMC4R (P299H)-RlucII; conditions: 10 μM, 16 h
# T3 construct: expressed in transfected cells; host or cells: HEK293
# Description: as §2
# hMC4R wt = target: T4, hMC4R wt (Homo sapiens, UniProt P32245); experiment: BRET pharmacological chaperone rescue / sequestration assay (rGFP-CAAX), hMC4R wt-RlucII; conditions: 10 μM, 16 h
# T4 construct: expressed in transfected cells; host or cells: HEK293
# Description: as §2
# T1 sequence (P43088 whole entry): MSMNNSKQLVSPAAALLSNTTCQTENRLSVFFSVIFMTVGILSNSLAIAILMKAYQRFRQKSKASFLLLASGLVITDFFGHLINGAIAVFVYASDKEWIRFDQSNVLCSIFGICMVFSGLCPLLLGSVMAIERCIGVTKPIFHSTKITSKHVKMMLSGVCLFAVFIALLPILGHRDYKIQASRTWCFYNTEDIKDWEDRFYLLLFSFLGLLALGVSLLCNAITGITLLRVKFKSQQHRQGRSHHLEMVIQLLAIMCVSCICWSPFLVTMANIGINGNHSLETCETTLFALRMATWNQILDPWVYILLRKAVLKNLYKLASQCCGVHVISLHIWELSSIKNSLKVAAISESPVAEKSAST
# T4 sequence (P32245 whole entry): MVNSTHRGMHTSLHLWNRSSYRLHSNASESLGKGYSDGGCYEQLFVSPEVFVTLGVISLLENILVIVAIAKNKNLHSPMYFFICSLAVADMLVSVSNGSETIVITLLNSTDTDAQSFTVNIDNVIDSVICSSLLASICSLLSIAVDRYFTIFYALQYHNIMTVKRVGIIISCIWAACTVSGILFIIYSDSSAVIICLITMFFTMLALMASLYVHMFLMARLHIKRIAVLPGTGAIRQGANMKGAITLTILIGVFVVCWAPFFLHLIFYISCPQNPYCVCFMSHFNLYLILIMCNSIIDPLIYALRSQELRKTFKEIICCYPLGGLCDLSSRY
# T2 sequence (P32245 whole entry R165Q): as the sequence (P32245 whole entry) above, with R165Q counted along it
# T3 sequence (P32245 whole entry P299H): as the sequence (P32245 whole entry) above, with P299H counted along it
compound,measurement,setting,value
"CCCCC[C@H](O)/C=C/[C@H]1[C@H](O)CC(=O)[C@@H]1C/C=C\CCCC(=O)O [PGE2, Prostaglandin E2]",EC50,[1],0.09 µM
"Cc1cc(C)c(S(=O)(=O)Nc2cccc(C(F)(F)F)c2)c(C)c1 [m-3m3FBS, N-(3-Trifluoromethylphenyl)-2,4,6-trimethylbenzenesulfonamide]",BRET response of DAG sensor,[2],increase in BRET
"CCC(=O)N[C@H](Cc1ccc(Cl)cc1Cl)C(=O)N1CCN(c2ccccc2CNC(C)COC)CC1 (stereo partly drawn) [DCPMP, N-((2R)-3(2,4-dichloroPhenyl)-1-(4-(2-((1-methoxypropan-2-ylamino)methyl)phenyl)piperazin-1-yl)-1-oxopropan-2-yl)propionamide]",PC-mediated rescue of cell surface expression,hMC4R (R165Q),increase in BRET signal
same,PC-mediated rescue of cell surface expression,hMC4R (P299H),not PC-rescued
same,PC-mediated rescue of cell surface expression,hMC4R wt,increase in BRET signal

# Reference: US10584159B2, “Renilla based biosensors for monitoring biomolecule localization and trafficking in cells” (The Royal Institution for the Advancement of …, priority 2014, dated 2020)
